The values below come from US20230106102A1, “METHOD OF PRODUCING TRICHODESMA KHASIANUM CLARKE LEAF EXTRACTS AND APPLICATION OF THE SAME” (BAI-CHUNG-REN Foodstuff.Co.Ltd, priority 2021, published 2023).

Marks after values point to notes of the source that are not given here.

Common to all, as to assay type: in vivo
A short description of series [1]: Calorie intake, alcohol intake and body weight of mice fed alcohol liquid diet. Particulars: for Body weight: RA group. On the procedure: In the design of this study, male mice of C57BL/6J strain are eight weeks old and are pre-bred for two weeks before starting the experiment to allow the animals to adapt to the environment, and observe whether the animals are abnormal daily. Raising at a relative humidity of 60%, 23±1° C., 12-hour light cycle (8:00-20:00), unlimited feed and water for rodents. The establishment and experimental grouping of liver injury and fatigue model animals. The trichodesma khasianum […] extract powders explore the effect of alcohol liquid diet on fatty liver and liver damage in mice, male mice of the C57BL/6J strain of 8 weeks old, are given special diet for experimental animals (Laboratory Rodent Diet) during the 2 week adaptation period. After one week, the body weight reached 20g, and the group is tested and started to be fed with standard alcoholic liquid model feed (Lieber-DeCarli Regular Control (DYET#710027)) or ethanol feed (Ethanol Diet (DYET#710260)), food and water are not restricted. The test is carried out for six weeks. The test substance is given a fixed daily dose by tube feeding. The dosage conversion refers to the US Food and Drug Administration announcement (US FDA, 2005), based on a 60 kg adult, the recommended daily body weight per kg 12.3 times the intake is the dose for mice. The animal experiment is divided into five groups, and each group has 8 mice, so there are […] mice, including normal group (NOR group), alcohol group (ALD group), low dose of the trichodesma khasianum […] extract powder (TL group) and high dose group of the trichodesma khasianum […] extract powder (TH group), and rosmarinic acid group (RA group). The recommended daily intake of the trichodesma khasianum […] extract powders are 2 g per day. After the animal experiment dose is converted, the one-time dose is […], and the […]-time dose is 0.82 g/kg. After fasting for 12 hours, the experimental animals are sacrificed by carbon dioxide asphyxiation, and blood and liver tissues are collected. After the blood is centrifuged, the serum is collected for biochemical analysis. The surface of the tissue is cleaned with saline solution, dried with a paper towel and weighed, then the tissue of the second largest leaf of the liver is cut and placed in a tissue embedding basin soaked in 10% formalin for paraffin embedding and sectioning so as to have tissue staining analysis. Finally, all remained livers are cleaned internally with 0.9% saline and stored in a -80° C. refrigerator for later use. The aforementioned test items of liver function in serum are aspartate aminotransferase (AST), alanine aminotransferase (ALT) and alkaline phosphatase (ALP) which are tested by using biochemical automatic analyzer (Beckman-700, Fullerton, Calif., USA). The test items of a concentration of lipid in blood are total cholesterol (TC) and triglyceride (TG) in serum, wherein a concentration of the total cholesterol is analyzed by using commercially available biochemical reagents (BXC 0261, Fortress), and a concentration of the biochemical reagents (BXC 0271, Fortress) is analyzed by triglyceride. The test items of a concentration of liver lipid are total cholesterol and triglycerides, wherein a concentration of the total cholesterol of the liver lipid is analyzed by using commercially available biochemical reagents (BXC 0261, Fortress), and a concentration of the biochemical reagents (BXC 0271, Fortress) of the liver lipid is analyzed by triglyceride. A production of lipid peroxide malondialdehyde (MDA) is determined by way of thiobarbituric acid (thiobarbituric acid) color method, wherein the more the product of lipid peroxide malondialdehyde is, the higher the absorbance value produces. Therefore, when the sample is capable of reducing the absorbance value of the system, it means that an anti-oxidant effect is formed. […]

Series [2] deals with mice with alcohol-induced liver injury. Briefly: Serum liver function index (AST, ALT) by biochemical automatic analyzer. Particulars: FIG. 2, extract: TL and TH group, RA group, p<0.05 vs ALD. On the procedure: (§1) In the design of this study, male mice of C57BL/6J strain are eight weeks old and are pre-bred for two weeks before starting the experiment to allow the animals to adapt to the environment, and observe whether the animals are abnormal daily. Raising at a relative humidity of 60%, 23±1° C., 12-hour light cycle (8:00-20:00), unlimited feed and water for rodents. The establishment and experimental grouping of liver injury and fatigue model animals. […] The test items of a concentration of lipid in blood are total cholesterol (TC) and triglyceride (TG) in serum, wherein a concentration of the total cholesterol is analyzed by using commercially available biochemical reagents (BXC 0261, Fortress), and a concentration of the biochemical reagents (BXC 0271, Fortress) is analyzed by triglyceride. The test items of a concentration of liver lipid are total cholesterol and triglycerides, wherein a concentration of the total cholesterol of the liver lipid is analyzed by using commercially available biochemical reagents (BXC 0261, Fortress), and a concentration of the biochemical reagents (BXC 0271, Fortress) of the liver lipid is analyzed by triglyceride. A production of lipid peroxide malondialdehyde (MDA) is determined by way of thiobarbituric acid (thiobarbituric acid) color method, wherein the more the product of lipid peroxide malondialdehyde is, the higher the absorbance value produces. […]

Series [3] concerns Mice with Alcoholic Liver Injury. The series is described as follows: Liver total cholesterol and triglyceride. The settings on record: RA group. On the procedure: (§2) In the design of this study, male mice of C57BL/6J strain are eight weeks old and are pre-bred for two weeks before starting the experiment to allow the animals to adapt to the environment, and observe whether the animals are abnormal daily. Raising at a relative humidity of 60%, 23±1° C., 12-hour light cycle (8:00-20:00), unlimited feed and water for rodents. The establishment and experimental grouping of liver injury and fatigue model animals. The trichodesma khasianum […] extract powders explore the effect of alcohol liquid diet on fatty liver and liver damage in mice, male mice of the C57BL/6J strain of 8 weeks old, are given special diet for experimental animals (Laboratory Rodent Diet) during the 2 week adaptation period. After one week, the body weight reached 20g, and the group is tested and started to be fed with standard alcoholic liquid model feed (Lieber-DeCarli Regular Control (DYET#710027)) or ethanol feed (Ethanol Diet (DYET#710260)), food and water are not restricted. The test is carried out for six weeks. The test substance is given a fixed daily dose by tube feeding. The dosage conversion refers to the US Food and Drug Administration announcement (US FDA, 2005), based on a 60 kg adult, the recommended daily body weight per kg 12.3 times the intake is the dose for mice. The animal experiment is divided into five groups, and each group has 8 mice, so there are […] mice, including normal group (NOR group), alcohol group (ALD group), low dose of the trichodesma khasianum […] extract powder (TL group) and high dose group of the trichodesma khasianum […] extract powder (TH group), and rosmarinic acid group (RA group). […] The test items of a concentration of lipid in blood are total cholesterol (TC) and triglyceride (TG) in serum, wherein a concentration of the total cholesterol is analyzed by using commercially available biochemical reagents (BXC 0261, Fortress), and a concentration of the biochemical reagents (BXC 0271, Fortress) is analyzed by triglyceride. The test items of a concentration of liver lipid are total cholesterol and triglycerides, wherein a concentration of the total cholesterol of the liver lipid is analyzed by using commercially available biochemical reagents (BXC 0261, Fortress), and a concentration of the biochemical reagents (BXC 0271, Fortress) of the liver lipid is analyzed by triglyceride. A production of lipid peroxide malondialdehyde (MDA) is determined by way of thiobarbituric acid (thiobarbituric acid) color method, wherein the more the product of lipid peroxide malondialdehyde is, the higher the absorbance value produces. Therefore, when the sample is capable of reducing the absorbance value of the system, it means that an anti-oxidant effect is formed. […]

Series [4] deals with mice with alcohol-induced liver injury. Briefly: Liver weight / body weight ratio (liver enlargement) in mice fed alcohol liquid diet. Particulars: p<0.05. On the procedure:
as §1

Series [5] has the same test system. The series is described as follows: Liver pathological section, H&E stain. The settings on record: FIG. 3, extract: TL and TH group, RA group. On the procedure: as §1
Series [6] deals with Mice with Alcoholic Liver Injury. Briefly: Liver lipid peroxidation (MDA, thiobarbituric acid color method). Particulars: RA group. On the procedure:
as §1

Series [7] has the same test system. The series is described as follows: Serum total cholesterol and triglyceride. Here is the method:
as §2

The mark [8] stands for this setting: extract: TL and TH group, p<0.05.
Setting [9] is: RA group, alcohol liquid diet six weeks.
[10] abbreviates: extract high dose (TH group) or RA group.

For `O=C(/C=C/c1ccc(O)c(O)c1)O[C@H](Cc1ccc(O)c(O)c1)C(=O)O` [RA, rosmarinic acid], in series [1] (0 to 6 weeks, alcohol feed diet, p>0.05), the “body weight compared with the alcohol group” value is “no significant difference”. For the same molecule, the Body weight in series [1] (Day 0) was 22.3 ± 0.7^a g; in series [1] (Day 7), 21.7 ± 0.7^a g; in series [1] (Day 14), 20.6 ± 0.5^a g; in series [1] (Day 21), 23.3 ± 0.8^a g; in series [1] (Day 28), 22.3 ± 0.7^a g; in series [1] (Day 35) it was 21.6 ± 0.8^a g. Besides, the Body weight in series [1] (Day 42) is 24.6 ± 1.0^a g. For the same molecule, the “serum alanine transaminase (ALT/GPT) activity induced by alcohol diet” value was “significantly reduced” in series [2] and “significantly reduce” in series [2] (listed as rosmarinic acid). For the same molecule, in series [3] (alcohol liquid diet six weeks), the Liver total cholesterol is on record as 6.3 ± 0.56 ^b mg/g. Moreover, in series [3] (alcohol liquid diet six weeks), the Liver triglyceride was 8.4 ± 1.68 ^bc mg/g. In series [3] (setting [8]), the “liver cholesterol concentration in mice” value is reported as “significantly reduce”. Also, in series [3] (setting [8]), the “liver triglyceride concentration in mice” value is “significantly reduce”. Moreover, the “ratio of liver weight/body weight compared with ALD group” value in series [4] (FIG. 1) is reported as “significantly lower”. In addition, the “alcohol-induced liver enlargement in mice” value in series [4] (extract: TL and TH group, RA group) is given as “significantly reduces”. Moreover, the “liver pathological examination (H&E section)” value is “only a few fat vacuoles and macrophage infiltration around the central vein” in series [5]; “improves the effects of alcoholic fatty liver and cell damage” in series [5] (listed as rosmarinic acid). Besides, the “production of liver lipid peroxides induced by alcohol diet” value in series [6] (extract: TH group, no significant difference (p>0.05)) is “tendency to reduce”. In series [6] (liver, alcohol liquid diet six weeks), the MDA was 5.00 ± 0.90 ^ab mM/g. In addition, in series [7] (setting [9]), the Serum total cholesterol is 105.9 ± 9.97 ^ab mg/dL. The Serum triglyceride in series [7] (setting [9]) is recorded as 107.7 ± 23.5 ^b mg/dL. In addition, the “serum total cholesterol raised by alcohol diet, compared with ALD group” value in series [7] (setting [10]) is reported as “significantly reduce”. Moreover, the “serum triglyceride raised by alcohol diet, compared with ALD group” value in series [7] (setting [10]) was “significantly reduce”.
